Measured values from US20180201592A1, “2-AMINO-1,3,4-THIADIAZINE AND 2-AMINO-1,3,4-OXADIAZINE BASED ANTIFUNGAL AGENTS” (F2G Limited, priority 2015, published 2018).

Tests used:
Conditions in all cases: banded MIC grade
Aspergillus fumigatus = test: Minimum inhibitory concentration, YAG medium; format: cell-based
Outline: (§1)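 MICs (mg/L) reflect >70% inhibition of OD485 growth versus untreated control after 24 hrs at 35° C in YAG medium, spore inoculum 1-2×10^4 cfu/mL, drug range 50-0.05 mg/L.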

A. fumigatus 210 [1] = test: Minimum inhibitory concentration, YAG medium; format: cell-based, Aspergillus fumigatus
Outline: as §1

A. terreus 49 [2] = test: Minimum inhibitory concentration, YAG medium; format: cell-based, Aspergillus terreus
Outline: (§2)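 MIC in mg/L, from OD485 growth read-out after 24 hrs at 35° C in YAG medium with Aspergillus spores. Doubling dilutions in water made from a 5 mg/mL DMSO stock.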

Aspergillus flavus = test: Minimum inhibitory concentration, YAG medium; format: cell-based
Outline: as §2

Aspergillus niger = test: Minimum inhibitory concentration, YAG medium; format: cell-based
Outline: as §2

Aspergillus terreus = test: Minimum inhibitory concentration, YAG medium; format: cell-based
Outline: as §2

A. flavus = test: Minimum inhibitory concentration, RPMI medium; format: cell-based
Outline: (§3)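 Growth was measured by OD at 485 nm after 24-48 hrs at 35° C in RPMI 1640 medium. Compound was serially diluted twofold in water, starting from a 5 mg/mL DMSO stock solution.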

A. niger = test: Minimum inhibitory concentration, RPMI medium; format: cell-based
Outline: as §3

A. terreus 49 [3] = test: Minimum inhibitory concentration, RPMI medium; format: cell-based
Outline: as §3

A. terreus = test: Minimum inhibitory concentration, RPMI medium; format: cell-based
Outline: as §3

C. albicans = test: Minimum inhibitory concentration, RPMI medium; format: cell-based
Outline: as §3

C. glabrata = test: Minimum inhibitory concentration, RPMI medium; format: cell-based
Outline: as §3

C. krusei = test: Minimum inhibitory concentration, RPMI medium; format: cell-based
Outline: as §3

C. parapsilosis = test: Minimum inhibitory concentration, RPMI medium; format: cell-based
Outline: as §3

C. tropicalis = test: Minimum inhibitory concentration, RPMI medium; format: cell-based
Outline: as §3

A. fumigatus 210 [4] = test: Minimum inhibitory concentration, RPMI medium; format: cell-based
Outline: (§4)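 Broth microdilution in RPMI 1640 (2% glucose, 0.135 M MOPS, pH 7.0) at 1-2×10^4 cfu/mL, testing 50-0.05 mg/L in doubling steps. After 24-48 hrs at 35° C, OD at 485 nm was read, and the MIC was taken as the lowest drug level suppressing growth by >80% relative to drug-free wells.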

A. fumigatus = test: Minimum inhibitory concentration, RPMI medium; format: cell-based
Outline: as §4

| Structure (SMILES) | MIC grade, A. FUMIGATUS, YAG media (Aspergillus fumigatus) | MIC grade, A. FUMIGATUS 210, YAG media (A. fumigatus 210 [1]) | MIC grade, A. TERREUS 49, YAG media (A. terreus 49 [2]) | MIC grade, A. FLAVUS, YAG media (Aspergillus flavus) | MIC grade, A. NIGER, YAG media (Aspergillus niger) | MIC grade, A. TERREUS, YAG media (Aspergillus terreus) | MIC grade, A. FLAVUS, RPMI media (A. flavus) | MIC grade, A. NIGER, RPMI media (A. niger) | MIC grade, A. TERREUS 49, RPMI media (A. terreus 49 [3]) | MIC grade, A. TERREUS, RPMI media (A. terreus) | MIC grade, C. ALBICANS, RPMI media (C. albicans) | MIC grade, C. GLABRATA, RPMI media (C. glabrata) | MIC grade, C. KRUSEI, RPMI media (C. krusei) | MIC grade, C. PARAPSILOSIS, RPMI media (C. parapsilosis) | MIC grade, C. TROPICALIS, RPMI media (C. tropicalis) | MIC grade, A. FUMIGATUS 210, RPMI media (A. fumigatus 210 [4]) | MIC grade, A. FUMIGATUS, RPMI media (A. fumigatus) |
| --- | --- | --- | --- | --- | --- | --- | --- | --- | --- | --- | --- | --- | --- | --- | --- | --- | --- |
| NC1=NN=C(CCCCOCc2ccc(Cl)cc2Cl)CS1 | 2 (2: 1-5 mg/L) | 2 (2: 1-5 mg/L) | 2 (2: 1-5 mg/L) | 2 (2: 1-5 mg/L) | 3 (3: 0.2-1 mg/L) | 2 (2: 1-5 mg/L) | 2 (2: 5-20 mg/L) | 1 (1: ≥20 mg/L) | 2 (2: 5-20 mg/L) | 2 (2: 5-20 mg/L) | 2 (2: 5-20 mg/L) | 1 (1: ≥20 mg/L) | 2 (2: 5-20 mg/L) | 2 (2: 5-20 mg/L) | 2 (2: 5-20 mg/L) | 1 (1: ≥20 mg/L) | 1 (1: ≥20 mg/L) |
| NC1=NN=C(CCCCOCc2ccc(F)cc2F)CS1 | 4 (4: <0.2 mg/L) | 4 (4: <0.2 mg/L) | 4 (4: <0.2 mg/L) | 4 (4: <0.2 mg/L) | 4 (4: <0.2 mg/L) | 4 (4: <0.2 mg/L) | 4 (4: <1 mg/L) | 4 (4: <1 mg/L) | 4 (4: <1 mg/L) | 4 (4: <1 mg/L) | 4 (4: <1 mg/L) | 4 (4: <1 mg/L) | 4 (4: <1 mg/L) | 4 (4: <1 mg/L) | 4 (4: <1 mg/L) | 3 (3: 1-5 mg/L) | 4 (4: <1 mg/L) |
| NC1=NN=C(CCCCOCc2cccc(Br)c2)CS1 | 4 (4: <0.2 mg/L) | 4 (4: <0.2 mg/L) | 4 (4: <0.2 mg/L) | 4 (4: <0.2 mg/L) | 4 (4: <0.2 mg/L) | 4 (4: <0.2 mg/L) | 4 (4: <1 mg/L) | 3 (3: 1-5 mg/L) | 3 (3: 1-5 mg/L) | 3 (3: 1-5 mg/L) | 4 (4: <1 mg/L) | 3 (3: 1-5 mg/L) | 4 (4: <1 mg/L) | 4 (4: <1 mg/L) | 4 (4: <1 mg/L) | 2 (2: 5-20 mg/L) | 4 (4: <1 mg/L) |
| NC1=NN=C(CCCCOCc2cccc(C3CC3)c2)CS1 | 3 (3: 0.2-1 mg/L) | 3 (3: 0.2-1 mg/L) | 3 (3: 0.2-1 mg/L) | 3 (3: 0.2-1 mg/L) | 3 (3: 0.2-1 mg/L) | 3 (3: 0.2-1 mg/L) | 2 (2: 5-20 mg/L) | 2 (2: 5-20 mg/L) | 2 (2: 5-20 mg/L) | 2 (2: 5-20 mg/L) | 4 (4: <1 mg/L) | 2 (2: 5-20 mg/L) | 4 (4: <1 mg/L) | 4 (4: <1 mg/L) | 4 (4: <1 mg/L) | 2 (2: 5-20 mg/L) | 3 (3: 1-5 mg/L) |
| NC1=NN=C(CCCCOCc2cccc(Oc3ccccc3)c2)CS1 | 1 (1: ≥5 mg/L) | 1 (1: ≥5 mg/L) | 1 (1: ≥5 mg/L) | 2 (2: 1-5 mg/L) | 2 (2: 1-5 mg/L) | 1 (1: ≥5 mg/L) | 1 (1: ≥20 mg/L) | 1 (1: ≥20 mg/L) | 1 (1: ≥20 mg/L) | 1 (1: ≥20 mg/L) | 3 (3: 1-5 mg/L) | 1 (1: ≥20 mg/L) | 3 (3: 1-5 mg/L) | 3 (3: 1-5 mg/L) | 3 (3: 1-5 mg/L) | 1 (1: ≥20 mg/L) | 1 (1: ≥20 mg/L) |
| NC1=NN=C(CCCCOCc2cc(F)cc(F)c2)CS1 | 4 (4: <0.2 mg/L) | 4 (4: <0.2 mg/L) | 4 (4: <0.2 mg/L) | 4 (4: <0.2 mg/L) | 4 (4: <0.2 mg/L) | 4 (4: <0.2 mg/L) | 3 (3: 1-5 mg/L) | 3 (3: 1-5 mg/L) | 3 (3: 1-5 mg/L) | 3 (3: 1-5 mg/L) | 4 (4: <1 mg/L) | 3 (3: 1-5 mg/L) | 4 (4: <1 mg/L) | 4 (4: <1 mg/L) | 4 (4: <1 mg/L) | 2 (2: 5-20 mg/L) | 4 (4: <1 mg/L) |
| Cc1cc(COCCCCC2=NN=C(N)SC2)ccc1F | 4 (4: <0.2 mg/L) | 4 (4: <0.2 mg/L) | 4 (4: <0.2 mg/L) | 4 (4: <0.2 mg/L) | 4 (4: <0.2 mg/L) | 4 (4: <0.2 mg/L) | 4 (4: <1 mg/L) | 3 (3: 1-5 mg/L) | 3 (3: 1-5 mg/L) | 3 (3: 1-5 mg/L) | 4 (4: <1 mg/L) | 3 (3: 1-5 mg/L) | 4 (4: <1 mg/L) | 4 (4: <1 mg/L) | 4 (4: <1 mg/L) | 2 (2: 5-20 mg/L) | 4 (4: <1 mg/L) |
| NC1=NN=C(CCCCOCc2ccc(F)cc2)CS1 | 2 (2: 1-5 mg/L) | 2 (2: 1-5 mg/L) | 2 (2: 1-5 mg/L) | 2 (2: 1-5 mg/L) | 2 (2: 1-5 mg/L) | 2 (2: 1-5 mg/L) | 1 (1: ≥20 mg/L) | 1 (1: ≥20 mg/L) | 1 (1: ≥20 mg/L) | 1 (1: ≥20 mg/L) | 2 (2: 5-20 mg/L) | 2 (2: 5-20 mg/L) | 2 (2: 5-20 mg/L) | 2 (2: 5-20 mg/L) | 2 (2: 5-20 mg/L) | 1 (1: ≥20 mg/L) | 1 (1: ≥20 mg/L) |
| COc1ccc(COCCCCC2=NN=C(N)SC2)cc1 | 2 (2: 1-5 mg/L) | 2 (2: 1-5 mg/L) | 2 (2: 1-5 mg/L) | 2 (2: 1-5 mg/L) | 2 (2: 1-5 mg/L) | 2 (2: 1-5 mg/L) | 1 (1: ≥20 mg/L) | 1 (1: ≥20 mg/L) | 1 (1: ≥20 mg/L) | 1 (1: ≥20 mg/L) | 2 (2: 5-20 mg/L) | 2 (2: 5-20 mg/L) | 2 (2: 5-20 mg/L) | 2 (2: 5-20 mg/L) | 2 (2: 5-20 mg/L) | 1 (1: ≥20 mg/L) | 1 (1: ≥20 mg/L) |
